{"source": "paper PMC5218480", "about": "(PLoS ONE, 2017)", "system": "MV-4-11 cells", "assay": "Gene expression microarray analysis (Affymetrix PrimeView) and GSEA", "type": "cell-based, human", "design": "RFU PODN (11730768_x_at) / Fold change /veh PODN (11730768_x_at) / RFU LINC00158 (11744669_a_at) / Fold change /veh LINC00158 (11744669_a_at) / RFU DUSP10 (11751237_a_at) / Fold change /veh DUSP10 (11751237_a_at) / RFU ID3 (11757404_x_at) / Fold change /veh ID3 (11757404_x_at) / RFU PLEKHG5 (11737974_s_at) / Fold change /veh PLEKHG5 (11737974_s_at) / RFU LRRC4B (11730491_at) / Fold change /veh LRRC4B (11730491_at) / RFU GIMAP4 (11747438_a_at) / Fold change /veh GIMAP4 (11747438_a_at) / RFU KRT8 (11758183_x_at) / Fold change /veh KRT8 (11758183_x_at) / RFU CNN1 (11734310_a_at) / Fold change /veh CNN1 (11734310_a_at) / RFU VPS37D (11726825_at) / Fold change /veh VPS37D (11726825_at) / RFU C10orf10 (11716522_x_at) / Fold change /veh C10orf10 (11716522_x_at) / RFU KIR2DL2 /// KIR2DL4 /// KIR2DL5A /// KIR2DL5B /// KIR2DS1 /// KIR2DS2 /// KIR2DS3 /// KIR2DS4 /// KIR3DL3 /// KIR3DL3 /// KIR3DS1 (11738374_at) / Fold change /veh KIR2DL2 /// KIR2DL4 /// KIR2DL5A /// KIR2DL5B /// KIR2DS1 /// KIR2DS2 /// KIR2DS3 /// KIR2DS4 /// KIR3DL3 /// KIR3DL3 /// KIR3DS1 (11738374_at) / RFU C1QL1 (11718748_at) / Fold change /veh C1QL1 (11718748_at) / RFU TMPRSS4 (11747572_a_at) / Fold change /veh TMPRSS4 (11747572_a_at) / RFU HAMP (11756126_x_at) / Fold change /veh HAMP (11756126_x_at) / RFU RNFT2 (11725882_a_at) / Fold change /veh RNFT2 (11725882_a_at) / RFU NR4A2 (11747474_a_at) / Fold change /veh NR4A2 (11747474_a_at) / RFU ABCC12 (11746883_a_at) / Fold change /veh ABCC12 (11746883_a_at) / RFU TMEM136 (11760407_x_at) / Fold change /veh TMEM136 (11760407_x_at) / RFU CLDN22 /// WWC2 (11732394_at) / Fold change /veh CLDN22 /// WWC2 (11732394_at) / RFU HLA-DPB1 (11760878_x_at) / Fold change /veh HLA-DPB1 (11760878_x_at) / RFU SPINT1 (11716480_a_at) / Fold change /veh SPINT1 (11716480_a_at) / RFU GAP43 (11754022_s_at) / Fold change /veh GAP43 (11754022_s_at) / RFU A4GNT (11735810_at) / Fold change /veh A4GNT (11735810_at) / RFU PRB3 (11715151_x_at) / Fold change /veh PRB3 (11715151_x_at) / RFU TUBB4B (11761932_at) / Fold change /veh TUBB4B (11761932_at) / RFU CAPN14 (11732068_a_at) / Fold change /veh CAPN14 (11732068_a_at) / RFU TMCC2 (11721928_a_at) / Fold change /veh TMCC2 (11721928_a_at) / RFU IRGQ (11745062_a_at) / Fold change /veh IRGQ (11745062_a_at) / RFU FAM174B (11720279_a_at) / Fold change /veh FAM174B (11720279_a_at) / RFU TMPRSS4 (11748680_a_at) / Fold change /veh TMPRSS4 (11748680_a_at) / RFU FAM212B (11763350_a_at) / Fold change /veh FAM212B (11763350_a_at) / RFU PLEKHG5 (11743358_a_at) / Fold change /veh PLEKHG5 (11743358_a_at) / RFU ZSCAN30 (11745921_a_at) / Fold change /veh ZSCAN30 (11745921_a_at) / RFU CMKLR1 (11741424_a_at) / Fold change /veh CMKLR1 (11741424_a_at) / RFU LOC101060620 /// MAPK8IP1 (11723275_at) / Fold change /veh LOC101060620 /// MAPK8IP1 (11723275_at) / RFU SPTSSB (11747773_x_at) / Fold change /veh SPTSSB (11747773_x_at) / RFU PRSS12 (11739890_at) / Fold change /veh PRSS12 (11739890_at) / RFU BIN1 (11741810_x_at) / Fold change /veh BIN1 (11741810_x_at) / RFU WNT11 (11732464_a_at) / Fold change /veh WNT11 (11732464_a_at) / RFU C10orf10 (11716521_a_at) / Fold change /veh C10orf10 (11716521_a_at) / RFU C5orf56 (11738089_at) / Fold change /veh C5orf56 (11738089_at) / RFU CYB561 (11721691_x_at) / Fold change /veh CYB561 (11721691_x_at) / RFU ANKRD19P (11752326_a_at) / Fold change /veh ANKRD19P (11752326_a_at) / RFU OR2T12 /// OR2T33 /// OR2T8 (11738714_s_at) / Fold change /veh OR2T12 /// OR2T33 /// OR2T8 (11738714_s_at) / RFU VCAN (11748164_a_at) / Fold change /veh VCAN (11748164_a_at) / RFU JSRP1 (11732532_at) / Fold change /veh JSRP1 (11732532_at) / RFU KRTAP10-11 (11738290_x_at) / Fold change /veh KRTAP10-11 (11738290_x_at) / RFU MYO3A (11730013_a_at) / Fold change /veh MYO3A (11730013_a_at) / RFU EBF3 (11725865_a_at) / Fold change /veh EBF3 (11725865_a_at) / RFU CAMK2N1 (11719241_x_at) / Fold change /veh CAMK2N1 (11719241_x_at) / RFU C5orf56 (11738088_a_at) / Fold change /veh C5orf56 (11738088_a_at) / RFU OLFML3 (11715873_a_at) / Fold change /veh OLFML3 (11715873_a_at) / RFU LOC100653217 /// NTM (11731650_a_at) / Fold change /veh LOC100653217 /// NTM (11731650_a_at) / RFU MAPK11 (11762145_a_at) / Fold change /veh MAPK11 (11762145_a_at) / RFU FIZ1 (11724087_x_at) / Fold change /veh FIZ1 (11724087_x_at) / RFU OASL (11726364_x_at) / Fold change /veh OASL (11726364_x_at) / RFU SOX15 (11748057_x_at) / Fold change /veh SOX15 (11748057_x_at) / RFU CD79A (11719716_a_at) / Fold change /veh CD79A (11719716_a_at) / RFU HIST1H1D (11736915_at) / Fold change /veh HIST1H1D (11736915_at) / RFU CASKIN2 (11723855_a_at) / Fold change /veh CASKIN2 (11723855_a_at) / RFU LOC730098 (11760151_x_at) / Fold change /veh LOC730098 (11760151_x_at) / RFU OR4N2 (11742367_at) / Fold change /veh OR4N2 (11742367_at) / RFU PRRT2 (11749266_a_at) / Fold change /veh PRRT2 (11749266_a_at) / RFU SNX32 (11753110_a_at) / Fold change /veh SNX32 (11753110_a_at) / RFU CDHR5 (11726645_a_at) / Fold change /veh CDHR5 (11726645_a_at) / RFU RCAN1 (11760418_a_at) / Fold change /veh RCAN1 (11760418_a_at) / RFU FAM167A (11723789_a_at) / Fold change /veh FAM167A (11723789_a_at) / RFU FAM26E (11764081_at) / Fold change /veh FAM26E (11764081_at) / RFU ISYNA1 (11749810_s_at) / Fold change /veh ISYNA1 (11749810_s_at) / RFU ACY1 (11761880_at) / Fold change /veh ACY1 (11761880_at) / RFU 11764098_at / Fold change /veh 11764098_at / RFU SAMD14 (11745864_x_at) / Fold change /veh SAMD14 (11745864_x_at) / RFU NPB (11741838_a_at) / Fold change /veh NPB (11741838_a_at) / RFU TMPRSS6 (11731388_a_at) / Fold change /veh TMPRSS6 (11731388_a_at) / RFU KRTAP10-2 (11738614_at) / Fold change /veh KRTAP10-2 (11738614_at) / RFU ARHGAP8 /// PRR5-ARHGAP8 (11727945_x_at) / Fold change /veh ARHGAP8 /// PRR5-ARHGAP8 (11727945_x_at) / RFU KRTAP5-7 /// NADSYN1 (11734609_at) / Fold change /veh KRTAP5-7 /// NADSYN1 (11734609_at) / RFU RASL12 (11751679_a_at) / Fold change /veh RASL12 (11751679_a_at) / RFU CDKN2B (11736163_a_at) / Fold change /veh CDKN2B (11736163_a_at) / RFU PRF1 (11729649_at) / Fold change /veh PRF1 (11729649_at) / RFU, ZNF638 /// ZNF638-IT1 / Fold change vs veh, ZNF638 /// ZNF638-IT1 / RFU, PANK3 / Fold change vs veh, PANK3 / RFU, SH3YL1 / Fold change vs veh, SH3YL1 / RFU, ZEB2 / Fold change vs veh, ZEB2 / RFU, NRIP1 / Fold change vs veh, NRIP1 / RFU, PTTG1IP / Fold change vs veh, PTTG1IP / RFU, CAPN2 / Fold change vs veh, CAPN2 / RFU, MED14 / Fold change vs veh, MED14 / RFU, SNORA58 / Fold change vs veh, SNORA58 / RFU, C1orf63 / Fold change vs veh, C1orf63 / RFU, LRRFIP1 / Fold change vs veh, LRRFIP1 / RFU, NDUFAF7 / Fold change vs veh, NDUFAF7 / RFU, SLC12A2 / Fold change vs veh, SLC12A2 / RFU, IBTK / Fold change vs veh, IBTK / RFU, ESF1 / Fold change vs veh, ESF1 / Fold change vs veh, TMEM50B / RFU, TAOK1 / Fold change vs veh, TAOK1 / RFU, ACBD3 / Fold change vs veh, ACBD3 / RFU, TMA16 / Fold change vs veh, TMA16 / RFU, RWDD3 / Fold change vs veh, RWDD3 / RFU, BCAT1 / Fold change vs veh, BCAT1 / RFU, EDEM3 / Fold change vs veh, EDEM3 / RFU, TMEM33 / Fold change vs veh, TMEM33 / RFU, WDR75 / Fold change vs veh, WDR75 / RFU, AHCTF1 / Fold change vs veh, AHCTF1 / RFU, TFRC / Fold change vs veh, TFRC / RFU, ZDHHC17 / Fold change vs veh, ZDHHC17 / RFU, NOM1 / Fold change vs veh, NOM1 / RFU, ARL8B / Fold change vs veh, ARL8B / RFU, ZBTB11 / Fold change vs veh, ZBTB11 / RFU, TAMM41 / Fold change vs veh, TAMM41 / RFU, KIAA1704 /// LOC100996395 / Fold change vs veh, KIAA1704 /// LOC100996395 / RFU, ING1 / Fold change vs veh, ING1 / RFU, TRMT61B / Fold change vs veh, TRMT61B / RFU, FUBP3 / Fold change vs veh, FUBP3 / RFU, TP53 / Fold change vs veh, TP53 / RFU, TNKS2 / Fold change vs veh, TNKS2 / RFU, ZFP14 / Fold change vs veh, ZFP14 / RFU, ACTR2 / Fold change vs veh, ACTR2 / RFU, PPP3R1 / Fold change vs veh, PPP3R1 / RFU, PIK3R1 / Fold change vs veh, PIK3R1 / RFU, HNRNPA1 / Fold change vs veh, HNRNPA1 / RFU, RNF170 / Fold change vs veh, RNF170 / RFU, ZNF28 / Fold change vs veh, ZNF28 / RFU, RNGTT / Fold change vs veh, RNGTT / RFU, OGT / Fold change vs veh, OGT / RFU, BRD1 / Fold change vs veh, BRD1 / RFU, MARS / Fold change vs veh, MARS / RFU, ZNF655 / Fold change vs veh, ZNF655 / RFU, FAHD1 / Fold change vs veh, FAHD1 / RFU, BDP1 / Fold change vs veh, BDP1 / RFU, LRRCC1 / Fold change vs veh, LRRCC1 / RFU, ARID1A / Fold change vs veh, ARID1A / RFU, ZNF146 / Fold change vs veh, ZNF146 / RFU, ZNF330 / Fold change vs veh, ZNF330 / RFU, GPN3 / Fold change vs veh, GPN3 / RFU, C9orf123 / Fold change vs veh, C9orf123 / RFU, N4BP2L2 / Fold change vs veh, N4BP2L2 / RFU, ARFIP1 / Fold change vs veh, ARFIP1 / RFU, FAM179B / Fold change vs veh, FAM179B / RFU, BCL10 / Fold change vs veh, BCL10 / RFU, UHRF1BP1L / Fold change vs veh, UHRF1BP1L / RFU, BET1 / Fold change vs veh, BET1 / RFU, CNOT2 / Fold change vs veh, CNOT2 / RFU, ZNF268 / Fold change vs veh, ZNF268 / Fold change vs veh, ZNF507 / RFU, DGCR2 / Fold change vs veh, DGCR2 / RFU, WDSUB1 / Fold change vs veh, WDSUB1 / Fold change vs veh, HSP90B1 /// MIR3652 / RFU, ADSS / Fold change vs veh, ADSS / RFU, GK / Fold change vs veh, GK / RFU, ZNF148 / Fold change vs veh, ZNF148 / RFU, TAF9 / Fold change vs veh, TAF9 / RFU, SLC1A5 / Fold change vs veh, SLC1A5 / RFU, SLMO2 / Fold change vs veh, SLMO2 / RFU, ABCC4 / Fold change vs veh, ABCC4 / RFU, LOC101060439 /// RAP1B / Fold change vs veh, LOC101060439 /// RAP1B / RFU, RFX7 / Fold change vs veh, RFX7 / RFU, GTPBP10 / Fold change vs veh, GTPBP10 / RFU, CNEP1R1 / Fold change vs veh, CNEP1R1 / RFU, BIVM-ERCC5 /// ERCC5 / Fold change vs veh, BIVM-ERCC5 /// ERCC5 / RFU, ILF3 / Fold change vs veh, ILF3 / RFU 11762660_at / Fold change /veh 11762660_at / RFU VCAN (11757783_s_at) / Fold change /veh VCAN (11757783_s_at) / RFU DDX43 (11728927_at) / Fold change /veh DDX43 (11728927_at) / RFU KRT8 (11758188_x_at) / Fold change /veh KRT8 (11758188_x_at) / RFU NKD1 (11759106_at) / Fold change /veh NKD1 (11759106_at) / RFU SRD5A1 (11742802_a_at) / Fold change /veh SRD5A1 (11742802_a_at) / RFU TPSAB1 /// TPSB2 (11721975_s_at) / Fold change /veh TPSAB1 /// TPSB2 (11721975_s_at) / RFU GSTM3 (11746129_a_at) / Fold change /veh GSTM3 (11746129_a_at) / RFU IL23R (11737362_x_at) / Fold change /veh IL23R (11737362_x_at) / RFU TMEM51 (11727254_a_at) / Fold change /veh TMEM51 (11727254_a_at) / RFU PIWIL2 (11732686_x_at) / Fold change /veh PIWIL2 (11732686_x_at) / RFU ORM1 (11744905_x_at) / Fold change /veh ORM1 (11744905_x_at) / RFU CCDC152 (11743942_at) / Fold change /veh CCDC152 (11743942_at) / RFU ECM1 (11717891_a_at) / Fold change /veh ECM1 (11717891_a_at) / RFU IL23R (11748794_a_at) / Fold change /veh IL23R (11748794_a_at) / RFU TNFAIP8L3 (11732012_x_at) / Fold change /veh TNFAIP8L3 (11732012_x_at) / RFU MBOAT4 (11741988_at) / Fold change /veh MBOAT4 (11741988_at) / RFU 11764193_at / Fold change /veh 11764193_at / RFU TMEM53 (11763286_at) / Fold change /veh TMEM53 (11763286_at) / RFU MAGEB2 (11727129_at) / Fold change /veh MAGEB2 (11727129_at) / RFU TMEM200A (11744735_a_at) / Fold change /veh TMEM200A (11744735_a_at) / RFU CCDC152 (11751479_a_at) / Fold change /veh CCDC152 (11751479_a_at) / RFU FAM211A (11726209_a_at) / Fold change /veh FAM211A (11726209_a_at) / RFU RGS16 (11746705_a_at) / Fold change /veh RGS16 (11746705_a_at) / RFU VCAN (11755009_s_at) / Fold change /veh VCAN (11755009_s_at) / RFU RHOB (11743442_s_at) / Fold change /veh RHOB (11743442_s_at) / RFU RGS16 (11720943_a_at) / Fold change /veh RGS16 (11720943_a_at) / RFU RGS16 (11720944_at) / Fold change /veh RGS16 (11720944_at) / RFU, VPS4B / Fold change vs veh, VPS4B / RFU, CREB1 / Fold change vs veh, CREB1 / RFU, DNAJC13 / Fold change vs veh, DNAJC13 / RFU, GNAQ / Fold change vs veh, GNAQ / RFU, CDK5R1 / Fold change vs veh, CDK5R1 / RFU, ZRANB3 / Fold change vs veh, ZRANB3 / RFU, CUL4A / Fold change vs veh, CUL4A / RFU, CCNY / Fold change vs veh, CCNY / RFU, UFL1 / Fold change vs veh, UFL1 / RFU, COG3 / Fold change vs veh, COG3 / RFU, DIAPH2 / Fold change vs veh, DIAPH2 / RFU, SKA2 / Fold change vs veh, SKA2 / RFU, AFF3 / Fold change vs veh, AFF3 / RFU, LMF1 / Fold change vs veh, LMF1 / RFU, IPO11 / Fold change vs veh, IPO11 / RFU, DFFB / Fold change vs veh, DFFB / RFU, FOXP1 / Fold change vs veh, FOXP1 / RFU, CARD8 / Fold change vs veh, CARD8 / RFU, STRN3 / Fold change vs veh, STRN3 / RFU, ADK / Fold change vs veh, ADK / RFU, RASSF2 / Fold change vs veh, RASSF2 / RFU, WIPF1 / Fold change vs veh, WIPF1 / RFU, LARP1B / Fold change vs veh, LARP1B / RFU, RASA1 / Fold change vs veh, RASA1 / RFU, RB1 / Fold change vs veh, RB1 / RFU, PPFIA1 / Fold change vs veh, PPFIA1 / RFU, MAT2A / Fold change vs veh, MAT2A / RFU, CCT5 / Fold change vs veh, CCT5 / RFU, WDR92 / Fold change vs veh, WDR92 / RFU, CUX1 / Fold change vs veh, CUX1 / RFU, TTC7A / Fold change vs veh, TTC7A / RFU, TMEM135 / Fold change vs veh, TMEM135 / RFU, DEPTOR / Fold change vs veh, DEPTOR / RFU, CPM / Fold change vs veh, CPM / RFU, DNAJB6 / Fold change vs veh, DNAJB6 / RFU, CACNA2D3 / Fold change vs veh, CACNA2D3 / RFU, DTX4 / Fold change vs veh, DTX4 / RFU, TFCP2 / Fold change vs veh, TFCP2 / RFU, GMCL1 /// GMCL1P1 / Fold change vs veh, GMCL1 /// GMCL1P1 / RFU, AEBP2 / Fold change vs veh, AEBP2 / RFU, SNHG1 /// SNORD22 /// SNORD25 /// SNORD26 /// SNORD27 /// SNORD28 /// SNORD29 /// SNORD31 / Fold change vs veh, SNHG1 /// SNORD22 /// SNORD25 /// SNORD26 /// SNORD27 /// SNORD28 /// SNORD29 /// SNORD31 / Fold change (Aza/veh), C12orf56 (ProbeSet 11735607_a_at) / Fold change (ACY-1035/veh), C12orf56 (ProbeSet 11735607_a_at) / Fold change (Aza/veh), FGFR1OP (ProbeSet 11751329_s_at) / Fold change (ACY-1035/veh), FGFR1OP (ProbeSet 11751329_s_at) / Fold change (Aza/veh), VPS36 (ProbeSet 11739960_a_at) / Fold change (ACY-1035/veh), VPS36 (ProbeSet 11739960_a_at) / RFU SYPL1 (11715823_x_at) / Fold change /veh SYPL1 (11715823_x_at) / RFU IGFBP7 (11715501_s_at) / Fold change /veh IGFBP7 (11715501_s_at) / RFU REEP3 (11722064_at) / Fold change /veh REEP3 (11722064_at) / RFU IGLL1 (11728026_x_at) / Fold change /veh IGLL1 (11728026_x_at): dose or concentration left out as unconfirmed", "settings": "MV-4-11 cells, 48 hours", "data": [{"smiles": "Nc1ccc(-c2cccs2)cc1NC(=O)c1ccc2c(c1)cc(C1CC1)n2CCN1CCOCC1", "note": "[ACY-1035]", "values": [{"measurement": "RFU OASL (11726364_x_at)", "result": 41.33, "unit": "RFU"}]}]}
